ChEMBL document CHEMBL1687756 (Antimicrob Agents Chemother, 2010)

Key:
[1] = Drug level in male Beagle dog spleen at 200 mg/kg, sc after 1 month; assay type: ADME, organism-based, Canis lupus familiaris; parameters: dose 200 mg/kg, route subcutaneous; conditions: read-out: Drug uptake
[2] = Drug level in female Beagle dog spleen at 400 mg/kg administered intramuscularly after 1 month; assay type: ADME, organism-based, Canis lupus familiaris; parameters: dose 400 mg/kg, route intramuscular; conditions: im, read-out: Drug uptake
[3] = Drug level in male Beagle dog thymus at 400 mg/kg, sc after 3 months; assay type: ADME, organism-based, Canis lupus familiaris; parameters: dose 400 mg/kg, route subcutaneous; conditions: read-out: Drug uptake
[4] = AUC (0 to last) in male dog at 200 mg administered intramuscularly after 85 days; conditions: plasma, im
[5] = Plasma concentration in Beagle dog at 5 mg/kg, sc after 6 months; assay type: ADME, organism-based, Canis lupus familiaris; parameters: dose 5 mg/kg, route subcutaneous
[6] = AUC (0 to last) in Beagle dog at 5 mg/kg administered intramuscularly after 176 days; assay type: ADME, organism-based, Canis lupus familiaris; parameters: dose 5 mg/kg, route intramuscular, time 0 - last; conditions: plasma, im
[7] = AUC (0 to last) in Beagle dog at 5 mg/kg, sc after 184 days; assay type: ADME, organism-based, Canis lupus familiaris; parameters: time 0 - last, dose 5 mg/kg, route subcutaneous; conditions: plasma
[8] = Plasma concentration in female Beagle dog at 400 mg/kg, sc after 1 month; assay type: ADME, organism-based, Canis lupus familiaris; parameters: dose 400 mg/kg, route subcutaneous; conditions: read-out: Drug uptake
[9] = Plasma concentration in male Beagle dog at 200 mg/kg administered intramuscularly after 3 months; assay type: ADME, organism-based, Canis lupus familiaris; parameters: dose 200 mg/kg, route intramuscular; conditions: im
[10] = Ratio of drug level in thymus to plasma in male Beagle dog at 200 mg/kg, sc after 1 month; assay type: ADME, organism-based, Canis lupus familiaris; parameters: dose 200 mg/kg, route subcutaneous
[11] = Drug level in female Beagle dog spleen at 200 mg/kg, sc after 3 months; assay type: ADME, organism-based, Canis lupus familiaris; parameters: dose 200 mg/kg, route subcutaneous; conditions: read-out: Drug uptake
[12] = Ratio of drug level in spleen to plasma in female Beagle dog at 400 mg/kg, sc after 3 months; assay type: ADME, organism-based, Canis lupus familiaris; parameters: dose 400 mg/kg, route subcutaneous
[13] = Drug level in Beagle dog muscle at injected site at 5 mg/kg, sc after 3 months; assay type: ADME, organism-based, Canis lupus familiaris, Muscle tissue; parameters: dose 5 mg/kg, route subcutaneous; conditions: read-out: Drug uptake
[14] = Drug level in Beagle dog skin at injected site at 5 mg/kg, sc after 3 months; assay type: ADME, organism-based, Canis lupus familiaris, Zone of skin; parameters: dose 5 mg/kg, route subcutaneous; conditions: read-out: Drug uptake
[15] = Drug level in male Beagle dog thymus at 200 mg/kg, sc after 3 months; assay type: ADME, organism-based, Canis lupus familiaris; parameters: dose 200 mg/kg, route subcutaneous; conditions: read-out: Drug uptake
[16] = Drug level in Beagle dog lymph node mandibular at 5 mg/kg administered intramuscularly after 6 months; assay type: ADME, organism-based, Canis lupus familiaris; parameters: dose 5 mg/kg, route intramuscular; conditions: im, read-out: Drug uptake
[17] = Cmax in male dog at 200 mg, sc after 85 days; conditions: in vivo
[18] = Ratio of drug level in thymus to plasma in male Beagle dog at 200 mg/kg, sc after 3 months; assay type: ADME, organism-based, Canis lupus familiaris; parameters: dose 200 mg/kg, route subcutaneous
[19] = Drug level in male Beagle dog thymus at 400 mg/kg administered intramuscularly after 3 months; assay type: ADME, organism-based, Canis lupus familiaris; parameters: dose 400 mg/kg, route intramuscular; conditions: im, read-out: Drug uptake
[20] = Drug level in Beagle dog lymph node popliteal at 5 mg/kg, sc after 1 month; assay type: ADME, organism-based, Canis lupus familiaris; parameters: dose 5 mg/kg, route subcutaneous; conditions: read-out: Drug uptake
[21] = Tmax in male dog at 400 mg administered intramuscularly after 85 days; conditions: in vivo, im
[22] = Ratio of drug level in thymus to plasma in male Beagle dog at 200 mg/kg administered intramuscularly after 3 months; assay type: ADME, organism-based, Canis lupus familiaris; parameters: dose 200 mg/kg, route intramuscular; conditions: im
[23] = Drug level in Beagle dog lymph node popliteal at 5 mg/kg administered intramuscularly after 3 months; assay type: ADME, organism-based, Canis lupus familiaris; parameters: dose 5 mg/kg, route intramuscular; conditions: im, read-out: Drug uptake
[24] = Cmax in male dog at 200 mg, sc after 29 days; conditions: in vivo
[25] = Ratio of drug level in lymph node mandibular to plasma in Beagle dog at 5 mg/kg, sc after 6 months; assay type: ADME, organism-based, Canis lupus familiaris; parameters: dose 5 mg/kg, route subcutaneous
[26] = Plasma concentration in Beagle dog at 5 mg/kg, sc after 3 months; assay type: ADME, organism-based, Canis lupus familiaris; parameters: dose 5 mg/kg, route subcutaneous
[27] = Drug level in Beagle dog liver at 5 mg/kg, sc after 3 months; assay type: ADME, organism-based, Canis lupus familiaris; parameters: dose 5 mg/kg, route subcutaneous; conditions: read-out: Drug uptake
[28] = Plasma concentration in male Beagle dog at 200 mg/kg, sc after 1 month; assay type: ADME, organism-based, Canis lupus familiaris; parameters: dose 200 mg/kg, route subcutaneous
[29] = Plasma concentration in female Beagle dog at 400 mg/kg administered intramuscularly after 1 month; assay type: ADME, organism-based, Canis lupus familiaris; parameters: dose 400 mg/kg, route intramuscular; conditions: im, read-out: Drug uptake

- concentration at 730.5 h [1]: 189 ng/g
- concentration at 730.5 h [2]: 311 ng/g
- concentration at 2191.5 h [3]: 173 ng/g
- AUC(0-t) at 2040 h [4]: 148 µg·h/mL
- concentration at 4383 h [5]: 1.3 ng/mL
- AUC(0-t) at 4224 h [6]: 23200 ng·h/mL
- AUC(0-t) at 4416 h [7]: 24400 ng·h/mL
- concentration at 730.5 h [8]: 227 ng/g
- concentration at 2191.5 h [9]: 9.2 ng/mL
- Kp at 730.5 h [10]: 6
- concentration at 2191.5 h [11]: 49.5 ng/g
- Kp at 2191.5 h [12]: 1.9
- concentration at 2191.5 h [13]: 467 ng/g
- concentration at 2191.5 h [14]: 223000 ng/g
- concentration at 2191.5 h [15]: 84.2 ng/g
- concentration at 4383 h [16]: 6.9 ng/g
- Cmax [17]: 107 ng/mL
- Kp at 2191.5 h [18]: 5.9
- concentration at 2191.5 h [19]: 76 ng/g
- concentration at 730.5 h [20]: 68.2 ng/g
- Tmax [21]: 17 h
- Kp at 2191.5 h [22]: 3.8
- concentration at 2191.5 h [23]: 13.7 ng/g
- Cmax [24]: 119 ng/mL
- Kp at 4383 h [25]: 6.1
- concentration at 2191.5 h [26]: 3.3 ng/mL
- concentration at 2191.5 h [27]: 45.6 ng/g
- concentration at 730.5 h [28]: 95 ng/mL
- concentration at 730.5 h [29]: 118 ng/g
SMILES: Cc1cc(/C=C/C#N)cc(C)c1Nc1ccnc(Nc2ccc(C#N)cc2)n1 [RILPIVIRINE]
